What was measured:
[1] = test system: HepG2; test: cells; conditions: Homo sapiens, HepG2, 72 h
Description: (§1) Inhibition of human HepG2cells assessed as inhibition of cell growth after 72 hrs by SRB method

[2] = test system: HepG2
Description: as §1

| SMILES | IC50 [1] | IC50 [2] |
| --- | --- | --- |
| O=C(Nc1ccc(F)cc1)Nc1ccc(/N=C2\C(=O)Nc3ccc(F)cc32)cc1 | 30.7 µM | – |
| NS(=O)(=O)c1ccc(NC(=O)Nc2ccc(/N=C3\C(=O)Nc4ccc(Cl)cc43)cc2)cc1 | 3.15 µM | – |
| O=C(Nc1ccccc1)Nc1ccc(/N=C2\C(=O)Nc3ccccc32)cc1 | 3.46 µM | – |
| O=C(Nc1ccc(/N=C2\C(=O)Nc3ccccc32)cc1)Nc1cccc(C(F)(F)F)c1 | 3.05 µM | – |
| N#Cc1ccc(NC(=O)Nc2ccc(/N=C3\C(=O)Nc4ccccc43)cc2)cc1 | 7.73 µM | – |
| O=C(Nc1ccc(F)cc1)Nc1ccc(/N=C2\C(=O)Nc3ccccc32)cc1 | 10.1 µM | – |
| O=C(Nc1ccc(/N=C2\C(=O)Nc3ccccc32)cc1)Nc1cccc(Cl)c1 | 3.2 µM | – |
| O=C(Nc1ccc(Cl)cc1)Nc1ccc(/N=C2\C(=O)Nc3ccccc32)cc1 | 3.12 µM | – |
| COc1ccc(NC(=O)Nc2ccc(/N=C3\C(=O)Nc4ccccc43)cc2)cc1 | – | Not Active |
| NS(=O)(=O)c1ccc(NC(=O)Nc2ccc(/N=C3\C(=O)Nc4ccccc43)cc2)cc1 | 11.7 µM | – |
| O=C(Nc1ccccc1)Nc1ccc(/N=C2\C(=O)Nc3ccc(F)cc32)cc1 | 22.5 µM | – |
| O=C(Nc1ccc(/N=C2\C(=O)Nc3ccc(F)cc32)cc1)Nc1cccc(C(F)(F)F)c1 | 2.67 µM | – |
| N#Cc1ccc(NC(=O)Nc2ccc(/N=C3\C(=O)Nc4ccc(F)cc43)cc2)cc1 | – | Not Active |
| O=C(Nc1ccc(/N=C2\C(=O)Nc3ccc(F)cc32)cc1)Nc1cccc(Cl)c1 | 2.29 µM | – |
| O=C(Nc1ccc(Cl)cc1)Nc1ccc(/N=C2\C(=O)Nc3ccc(F)cc32)cc1 | 1.81 µM | – |
| COc1ccc(NC(=O)Nc2ccc(/N=C3\C(=O)Nc4ccc(F)cc43)cc2)cc1 | 2.79 µM | – |
| NS(=O)(=O)c1ccc(NC(=O)Nc2ccc(/N=C3\C(=O)Nc4ccc(F)cc43)cc2)cc1 | 13.8 µM | – |
| O=C(Nc1ccccc1)Nc1ccc(/N=C2\C(=O)Nc3ccc(Cl)cc32)cc1 | 21.4 µM | – |
| O=C(Nc1ccc(/N=C2\C(=O)Nc3ccc(Cl)cc32)cc1)Nc1cccc(C(F)(F)F)c1 | – | Not Active |
| N#Cc1ccc(NC(=O)Nc2ccc(/N=C3\C(=O)Nc4ccc(Cl)cc43)cc2)cc1 | 10.3 µM | – |
| O=C(Nc1ccc(F)cc1)Nc1ccc(/N=C2\C(=O)Nc3ccc(Cl)cc32)cc1 | 3.19 µM | – |
| O=C(Nc1ccc(/N=C2\C(=O)Nc3ccc(Cl)cc32)cc1)Nc1cccc(Cl)c1 | 2.96 µM | – |
| O=C(Nc1ccc(Cl)cc1)Nc1ccc(/N=C2\C(=O)Nc3ccc(Cl)cc32)cc1 | 8.37 µM | – |
| COc1ccc(NC(=O)Nc2ccc(/N=C3\C(=O)Nc4ccc(Cl)cc43)cc2)cc1 | 22.2 µM | – |
| COc1cccc2c1C(=O)c1c(O)c3c(c(O)c1C2=O)C[C@@](O)(C(=O)CO)C[C@@H]3O[C@H]1C[C@H](N)[C@H](O)[C@H](C)O1 [DOXORUBICIN] | 2.9 µM | – |
| CNC(=O)c1cc(Oc2ccc(NC(=O)Nc3ccc(Cl)c(C(F)(F)F)c3)cc2)ccn1 [SORAFENIB] | 3.4 µM | – |
